18 molecules from patent publication US8609650B2, “Bridged bicyclic aryl and bridged bicyclic heteroaryl substituted triazoles useful as Axl inhibitors” (Rigel Pharmaceuticals, Inc., priority 2006, dated 2013) can be followed below.

In general, IC50 refers to the concentration that inhibits the measured activity by half. Higher therefore signals lower potency.

The target of the assay is T1, Axl (Homo sapiens, UniProt P30530).
T1 construct: endogenous in cells; host or cells: HeLa cells
T1 sequence (P30530 26-894): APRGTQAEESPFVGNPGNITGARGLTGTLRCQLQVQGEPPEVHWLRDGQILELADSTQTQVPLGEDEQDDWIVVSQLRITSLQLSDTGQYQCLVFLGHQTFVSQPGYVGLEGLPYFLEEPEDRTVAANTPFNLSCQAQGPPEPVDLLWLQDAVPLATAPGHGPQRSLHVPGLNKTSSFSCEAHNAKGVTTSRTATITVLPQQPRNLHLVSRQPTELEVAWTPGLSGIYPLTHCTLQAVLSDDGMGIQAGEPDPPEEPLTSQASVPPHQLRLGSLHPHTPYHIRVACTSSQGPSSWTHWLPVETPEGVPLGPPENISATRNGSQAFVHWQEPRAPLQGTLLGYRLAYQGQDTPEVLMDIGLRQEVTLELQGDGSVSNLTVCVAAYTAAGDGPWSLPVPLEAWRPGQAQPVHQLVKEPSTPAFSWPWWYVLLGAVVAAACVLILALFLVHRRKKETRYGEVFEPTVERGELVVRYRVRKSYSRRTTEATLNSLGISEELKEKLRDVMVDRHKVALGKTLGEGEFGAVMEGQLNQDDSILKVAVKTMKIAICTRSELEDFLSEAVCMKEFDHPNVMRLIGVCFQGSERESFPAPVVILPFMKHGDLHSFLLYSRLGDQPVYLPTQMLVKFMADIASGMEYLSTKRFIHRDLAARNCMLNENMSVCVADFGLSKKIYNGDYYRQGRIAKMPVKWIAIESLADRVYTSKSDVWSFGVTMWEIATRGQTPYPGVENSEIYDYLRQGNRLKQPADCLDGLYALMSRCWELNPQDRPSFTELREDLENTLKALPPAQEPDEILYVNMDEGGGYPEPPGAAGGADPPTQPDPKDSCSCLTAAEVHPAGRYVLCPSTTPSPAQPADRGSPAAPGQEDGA
Nature of the assay: Phospho-Akt In-Cell Western Assay (ability to inhibit Axl activity). It counts as cell-based. As to conditions: Hela cells, stimulated by Axl-antibody cross-linking, phospho-Akt chemiluminescence normalized to relative cell number. How it is done:
The compounds of the invention were tested in the following assay for their ability to inhibit Axl activity.
Phospho-Akt In-Cell Western Assay
• Cell culture plate: 96 well assay plate (Corning 3610), white, clear bottom, tissue-culture treated. • Cells: Hela cells. • Starvation medium: For Axl stimulation: 0.5% FCS (fetal calf serum) in DMEM, plus Axl/Fc (extracellular domain of AXL fused to immunoglobulin Fc region) (R&D, 154-AL) 500 ng/mL. • For EGF (epidermal growth factor) stimulation: 0.5% FCS in DMEM (Dulbecco's modified Eagles medium). • Poly-L-Lysine 0.01% solution (the working solution): 10 μg/ml, dilute In PBS (phosphate buffered saline). • Axl antibody cross-linking: • 1st: Mouse anti-Axl (R&D, MAB154). • 2nd: Biotin-SP-conjugated AffiniPure goat anti-mouse IgG (H+L) (Jackson ImmunoResearch #115-065-003). • Fixing buffer: 4% formaldehyde in PBS. • Wash buffer: 0.1% TritonX-100 in PBS. • Quenching buffer: 3% H2O2, 0.1% Azide in wash buffer, Azide and hydrogen peroxide (H2O2) are added fresh. • Blocking buffer: 5% BSA in TBST (tris buffered saline plus 0.1% Tween 20). • Primary antibody: Rabbit anti-human Phospho-Akt antibody (Cell Signaling 9271): 1×250 diluted in blocking buffer. • Secondary antibody: HRP (horse radish peroxidase)-conjugated Goat anti-Rabbit secondary, stock solution: Jackson ImmunoResearch (Goat anti-Rabbit HRP, #111-035-144) 1:1 diluted in glycerol, store at −20° C. The working solution: 1×2000 dilution of stock in blocking buffer. • Chemiluminescent working solution (Pierce, 37030): SuperSignal ELISA (enzyme linked immunosorbant assay) Pico Chemiluminescent substrate. • Crystal Violet solution: Stock: 2.5% Crystal violet in methanol, filtered and kept at ambient temperature. The working solution: dilute the stock 1:20 with PBS immediately before use. • 10% SDS: working solution: 5% SDS (sodium dodecylsulfate), diluted in PBS Methods: Day 1:
A 96 well TC (tissue culture treated) plate was coated with 10 μg/mL poly-L-Lysine at 37° C. for 30 min, washed twice with PBS, and air-dried for 5 minutes before cells were added. Hela cells were seeded at 10,000 cells/well and the cells were starved in 100 μL starvation medium containing Axl/Fc for 24 hrs.
The cells were pre-treated with test compounds by adding 100 μL of 2× test compound to the starvation medium on the cells. The cells were incubated at 37° C. for 1 hr before stimulation.
The cells were stimulated by Axl-antibody cross-linking as follows: A 5×1st/2nd Axl antibody mixture was made (37.5 μg/mL 1st/100 μg/mL 2nd) in starvation medium and nutated at 4° C. with thorough mixing for 1-2 hours for clustering. The resulting mix was warmed to 37° C. 50 μL of 5× Axl 1st/2nd of antibody cluster was added to the cells and the cells were incubated at 37° C. for 5 min.
After 5 minutes stimulation, the plate was flicked to remove medium and the plate was tapped onto paper towels. Formaldehyde (4.0% in PBS, 100 μL) was added to fix the cells and the cells were incubated at ambient temperature for 20 min without shaking.
The cells were washed with a plate washer buffer to remove the formaldehyde solution. The plate was flicked to removed excess wash buffer and tapped onto paper towels. Quenching buffer (100 μL) was added to each well and the cells were incubated at ambient temperature for 20 minutes without shaking.
The cells were washed with a plate washer buffer to remove the quenching buffer. Blocking buffer (100 μL) was added and the cells were incubated at ambient temperature for at least an hour with gentle shaking.
The cells were washed with a plate washer buffer and diluted primary antibody (50 μL) was added to each well (blocking buffer was added to the negative control wells instead). The plates were incubated overnight at 4° C. with gentle shaking.
The wash buffer was removed, diluted secondary antibody (100 μL) was added, and the cells were incubated at ambient temperature for 1 hour with gentle shaking. […]
For the molecule “1-(5,8-dimethylmethano-8-methyl-5,6,7-trihydroquinazolin-2-yl)-N^3-(3-fluoro-4-(4-(pyrrolidin-1-yl)piperidin-1-yl)phenyl)-1H-1,2,4-triazole-3,5-diamine [Compound 21]”, the IC50 was < 1 µM.

In turn, “1-(5,8-methano-5,6,7,8-tetrahydroquinazolin-2-yl)-N^3-(4-(morpholin-1-yl)phenyl)-1H-1,2,4-triazole-3,5-diamine [Compound 5]” had an IC50 of 1 to 10 µM.

For “1-((6R,8R)-6,8-dimethylmethano-5,6,7,8-tetrahydroquinoline-2-yl)-N^3-(3-fluoro-4-(4-(pyrrolidin-1-yl)piperidin-1-yl)phenyl)-1H-1,2,4-triazole-3,5-diamine [Compound 34]”, the IC50 was < 1 µM.

Regarding `Nc1nc(Nc2ccc(OCCN3CCCC3)cc2)nn1-c1ncc2c(n1)C1CCC2C1` (stereo not drawn) [Compound 1, 1-(5,8-methano-5,6,7,8-tetrahydroquinazolin-2-yl)-N^3-(4-(2-(pyrrolidin-1-yl)ethoxy)phenyl)-1H-1,2,4-triazole-3,5-diamine], the IC50 is > 20 µM.

Turning to `CCSc1nc2c(c(-n3nc(Nc4ccc(OCCN5CCCC5)cc4)nc3N)n1)C1CCC2C1` (stereo not drawn) [Compound 2, 1-(2-ethylthio-5,8-methano-5,6,7,8-tetrahydroquinazolin-4-yl)-N^3-(4-(2-(pyrrolidin-1-yl)ethoxy)phenyl)-1H-1,2,4-triazole-3,5-diamine], the IC50 is < 1 µM.

`CN1CCCC(Oc2ccc(Nc3nc(N)n(-c4ncc5c(n4)C4CCC5C4)n3)cc2)C1` (stereo not drawn) [Compound 3, (5,8-methano-5,6,7,8-tetrahydroquinazolin-2-yl)-N^3-(4-(1-methyl(piperidin-3-yl)oxy)phenyl)-1H-1,2,4-triazole-3,5-diamine]: the IC50 was < 1 µM.

For `CN1CCN(c2ccc(Nc3nc(N)n(-c4ncc5c(n4)C4CCC5C4)n3)cc2)CC1` (stereo not drawn) [Compound 4, 1-(5,8-methano-5,6,7,8-tetrahydroquinazolin-2-yl)-N^3-(4-(4-methylpiperazin-1-yl)phenyl)-1H-1,2,4-triazole-3,5-diamine], the IC50 was < 1 µM.

Turning to `Nc1nc(Nc2ccc(N3CCN(C4CCCCC4)CC3)cc2)nn1-c1ncc2c(n1)C1CCC2C1` (stereo not drawn) [Compound 6, 1-(5,8-methano-5,6,7,8-tetrahydroquinazolin-2-yl)-N^3-(4-(4-cyclohexanylpiperazin-1-yl)phenyl)-1H-1,2,4-triazole-3,5-diamine], the IC50 was < 1 µM.

As to `Nc1nc(Nc2ccc(N3CCN(C4CC5CCC4C5)CC3)cc2)nn1-c1ncc2c(n1)C1CCC2C1` (stereo not drawn) [Compound 8, N^3-(4-(4-(bicyclo[2.2.1]heptan-2-yl)piperazin-1-yl)phenyl)-1-(5,8-methano-5,6,7,8-tetrahydroquinazolin-2-yl)-1H-1,2,4-triazole-3,5-diamine], the IC50 was < 1 µM.

For the molecule `Nc1nc(Nc2ccc(N3CCN(C4CCCCCCC4)CC3)cc2)nn1-c1ncc2c(n1)C1CCC2C1` (stereo not drawn) [Compound 9, N^3-(4-(4-cyclooctylpiperazin-1-yl)phenyl)-1-(5,8-methano-5,6,7,8-tetrahydroquinazolin-2-yl)-1H-1,2,4-triazole-3,5-diamine], the IC50 is < 1 µM.

As to `Nc1nc(Nc2ccc(N3CCN(C4CCCCCC4)CC3)cc2)nn1-c1ncc2c(n1)C1CCC2C1` (stereo not drawn) [Compound 10, N^3-(4-(4-cycloheptylpiperazin-1-yl)phenyl)-1-(5,8-methano-5,6,7,8-tetrahydroquinazolin-2-yl)-1H-1,2,4-triazole-3,5-diamine], the 50% inhibitory concentration (IC50) was < 1 µM.

For `Nc1nc(Nc2ccc(N3CCC(N4CCCC4)CC3)c(F)c2)nn1-c1ncc2c(n1)C1CCC2C1` (stereo not drawn) [Compound 11, 1-(5,8-methano-5,6,7,8-tetrahydroquinazolin-2-yl)-N^3-(3-fluoro-4-(4-(pyrrolidin-1-yl)piperidin-1-yl)phenyl)-1H-1,2,4-triazole-3,5-diamine], the IC50 was < 1 µM.

Consider `CN1CCC(c2ccc(Nc3nc(N)n(-c4ncc5c(n4)C4CCC5C4)n3)cc2)CC1` (stereo not drawn) [Compound 12, N^3-(4-(1-methylpiperidin-4-yl)phenyl)-1-(5,8-methano-5,6,7,8-tetrahydroquinazolin-2-yl)-1H-1,2,4-triazole-3,5-diamine], for which the IC50 is > 20 µM.

For `Nc1nc(Nc2ccc3c(c2)CCNC3)nn1-c1ncc2c(n1)C1CCC2C1` (stereo not drawn) [Compound 13, 1-(5,8-methano-5,6,7,8-tetrahydroquinazolin-2-yl)-N^3-(1,2,3,4-tetrahydroisoquinolin-6-yl)-1H-1,2,4-triazole-3,5-diamine], the IC50 was > 20 µM.

Regarding `Cc1csc2c(-n3nc(Nc4ccc5c(c4)CC4CCC(C5)C4N4CCCC4)nc3N)nc(Cl)nc12` (stereo not drawn) [Compound 15, 1-(2-chloro-7-methylthieno[3,2-d]pyrimidin-4-yl)-N^3-(7-pyrrolidin-1-yl-6,8-ethano-6,7,8,9-tetrahydro-5H-benzo[7]annulene-3-yl)-1H-1,2,4-triazole-3,5-diamine], the IC50 was < 1 µM.

Turning to `COc1cc2ncnc(-n3nc(Nc4ccc5c(c4)CC4CCC(C5)C4N4CCCC4)nc3N)c2cc1OC` (stereo not drawn) [Compound 16, 1-(6,7-dimethoxyquinazolin-4-yl)-N^3-(7-pyrrolidin-1-yl-6,8-ethano-6,7,8,9-tetrahydro-5H-benzo[7]annulene-3-yl)-1H-1,2,4-triazole-3,5-diamine], the IC50 was < 1 µM.

As to `CCN(CC)C1CCN(c2ccc(Nc3nc(N)n(-c4ncnc5c4C4CCC5C4)n3)cc2F)CC1` (stereo not drawn) [Compound 17, 1-(5,8-methano-5,6,7,8-tetrahydroquinazolin-4-yl)-N^3-(3-fluoro-4-(4-diethylaminopiperidin-1-yl)phenyl)-1H-1,2,4-triazole-3,5-diamine], the IC50 is < 1 µM.

`Nc1nc(Nc2ccc(N3CCN(C4CC5CCC4C5)CC3)cc2)nn1-c1ncnc2c1C1CCC2C1` (stereo not drawn) [Compound 18, 1-(5,8-methano-5,6,7,8-tetrahydroquinazolin-4-yl)-N^3-(4-(4-(bicyclo[2.2.1]heptan-2-yl)piperazin-1-yl)phenyl)-1H-1,2,4-triazole-3,5-diamine]: the IC50 is < 1 µM.
